Experimental data as given in patent US20210163976A1, “GENETICALLY ALTERED PLANTS EXPRESSING HETEROLOGOUS RECEPTORS THAT RECOGNIZE LIPO-CHITOOLIGOSACCHARIDES” (Aarhus Universitet, priority 2018, published 2021).
“Also recorded” adds a separate entry of the source.

Key:
[1] = molecular target: T1, Hordeum vulgare RLK10 (HvRLK10; HvLysM-RLK10) ectodomain (residues 25-231), SEQ ID NO: 29 (construct SEQ ID NO: 28) (Hordeum vulgare, UniProt A0A8I6Y103); assay: BLI binding of barley HvRLK10 ectodomain; parameters: species or system Hordeum vulgare (barley); settings: FIGS. 13A, 13C-13D
T1 construct: full-length natural protein 633 aa beginning […]
T1 sequence (A0A8I6Y103 25-231): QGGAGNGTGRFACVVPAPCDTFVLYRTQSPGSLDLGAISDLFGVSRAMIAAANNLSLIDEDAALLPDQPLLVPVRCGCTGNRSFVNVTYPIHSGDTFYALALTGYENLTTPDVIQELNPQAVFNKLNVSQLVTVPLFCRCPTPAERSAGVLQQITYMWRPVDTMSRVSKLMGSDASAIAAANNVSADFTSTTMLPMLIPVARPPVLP

[2] = molecular target: T2, Medicago truncatula NFP ectodomain (NFP-ECD, residues 28-246), wild type, SEQ ID NO: 1 (Medicago truncatula, UniProt Q0GXS4); assay: Microscale thermophoresis (MST) binding of NFP to carbohydrate ligands
T2 construct: The Medicago truncatula NFP ectodomain (residues 28-246); AcMNPV gp67 signal peptide (replaces native signal peptide 1-27) (N); hexa-histidine tag (C); made in house; host or cells: Sf9 cells (Spodoptera frugiperda), baculovirus
Method: (§1) Expression and purification of Medicago NFP ectodomain: The Medicago truncatula NFP ectodomain (residues 28-246) was codon-optimized for insect cell expression (Genscript, Piscataway, USA) and cloned into the pOET4 baculovirus transfer vector (Oxford Expression Technologies). The native NFP signal peptide (residues 1-27, predicted by SignalP 4.1) was replaced with the AcMNPV gp67 signal peptide to facilitate secretion and a hexa-histidine tag was added to the C-terminus. Point mutants of NFP were engineered using site-directed mutagenesis. Recombinant baculoviruses were produced in Sf9 cells (Spodoptera frugiperda) using the FlashBac Gold kit (Oxford Expression technologies) according to the manufacturer's instructions with Lipofectin (ThermoFisher Scientific) as a transfection reagent. Protein expression was performed as follows. Suspension-cultured Sf9 cells were maintained with shaking at 299 K in serum-free MAX-XP (BD-Biosciences, discontinued) or HyClone SFX (GE Healthcare) medium supplemented with 1% Pen-Strep (10000 U/ml, Life technologies) and 1% CD lipid concentrate (Gibco). Protein expression was induced by adding recombinant passage 3 virus once the Sf9 cells reached a cell density of 1.0*10^7^6 cells/ml. After 5-7 days of expression, medium supernatant containing NFP ectodomains was harvested by centrifugation. This was followed by an overnight dialysis step against 50 mM Tris-HCl pH 8, 200 mM NaCl at 277 K. The NFP ectodomain was enriched by two subsequent steps of Ni-IMAC purification (HisTrap excel/HisTrap HP, both GE Healthcare). For crystallography experiments, N-glycans were removed using the endoglycosidase PNGase F (1:15 (w/w), room temperature, overnight). As a final purification step, NFP ectodomain was purified by SEC on a Superdex 200 10/300 or HiLoad Superdex 200 16/600 (both GE Healthcare) in phosphate buffered saline at pH 7.2 supplemented to a total of 500 mM NaCl (for binding assays) or 50 mM Tris-HCl, 200 mM NaCl (for crystallography). NFP ectodomain elutes as a single, homogeneous peak corresponding to a monomer. […]

[3] = molecular target: T2, Medicago truncatula NFP ectodomain (NFP-ECD, residues 28-246), wild type, SEQ ID NO: 1; assay: Biolayer interferometry (BLI) binding of NFP / NFP-ECD to immobilized LCO and CO ligands; settings: further BLI assays, FIGS. 15B-15E, analyte 1.56-100 μM; listed as chitin
Method: (§2) Expression and purification of Medicago NFP ectodomain: The Medicago truncatula NFP ectodomain (residues 28-246) was codon-optimized for insect cell expression (Genscript, Piscataway, USA) and cloned into the pOET4 baculovirus transfer vector (Oxford Expression Technologies). The native NFP signal peptide (residues 1-27, predicted by SignalP 4.1) was replaced with the AcMNPV gp67 signal peptide to facilitate secretion and a hexa-histidine tag was added to the C-terminus. Point mutants of NFP were engineered using site-directed mutagenesis. Recombinant baculoviruses were produced in Sf9 cells (Spodoptera frugiperda) using the FlashBac Gold kit (Oxford Expression technologies) according to the manufacturer's instructions with Lipofectin (ThermoFisher Scientific) as a transfection reagent. Protein expression was performed as follows. Suspension-cultured Sf9 cells were maintained with shaking at 299 K in serum-free MAX-XP (BD-Biosciences, discontinued) or HyClone SFX (GE Healthcare) medium supplemented with 1% Pen-Strep (10000 U/ml, Life technologies) and 1% CD lipid concentrate (Gibco). Protein expression was induced by adding recombinant passage 3 virus once the Sf9 cells reached a cell density of 1.0*10^7^6 cells/ml. After 5-7 days of expression, medium supernatant containing NFP ectodomains was harvested by centrifugation. This was followed by an overnight dialysis step against 50 mM Tris-HCl pH 8, 200 mM NaCl at 277 K. The NFP ectodomain was enriched by two subsequent steps of Ni-IMAC purification (HisTrap excel/HisTrap HP, both GE Healthcare). For crystallography experiments, N-glycans were removed using the endoglycosidase PNGase F (1:15 (w/w), room temperature, overnight). As a final purification step, NFP ectodomain was purified by SEC on a Superdex 200 10/300 or HiLoad Superdex 200 16/600 (both GE Healthcare) in phosphate buffered saline at pH 7.2 supplemented to a total of 500 mM NaCl (for binding assays) or 50 mM Tris-HCl, 200 mM NaCl (for crystallography). NFP ectodomain elutes as a single, homogeneous peak corresponding to a monomer. Point mutated versions of NFP were expressed and purified following the same protocol.
(§3) Biolayer interferometry (BLI): Binding of NFP and mutated versions of NFP to ligands was measured on an Octet RED 96 system (Pall ForteBio). The ligands used were LCO-IV (from S. meliloti), LCO-V (from S. meliloti), LCO-V (from M. loti), and C06 (from M. loti). S. meliloti LCO consists of a tetrameric/pentameric N-acetylglucosamine backbone that is 0-sulfated on the reducing terminal residue, 0-acetylated on the non-reducing terminal residue, and mono-N-acylated by unsaturated C16 acyl groups. M. loti LCO is a pentameric N-acetylglucosamine with a cis-vaccenic acid and a carbamoyl group at the non-reducing terminal residue together with a 2,4-O-acetylfucose at the reducing terminal residue. Biotinylated ligand conjugates were immobilized on streptavidin biosensors (kinetic quality, Pall ForteBio) at a concentration of 125-250 nM for 5 minutes. The binding assays using the S. meliloti ligands (LCO-IV and LCO-V) were replicated seven times, while the binding assays using the M loti ligands (LCO-V and C06) were replicated six times. Data analysis was performed in GraphPad Prism 6 software (GraphPad Software, Inc.). Equilibrium dissociation constants derived from the steady-state were determined by applying a non-linear regression (one site, specific binding) to the response at equilibrium plotted against the protein concentration. Kinetic parameters were determined by non-linear regression (association followed by dissociation) on the subtracted data.
(§4) Mutated lipochitooligosaccharide (LCO) ligands: S. meliloti LCO consists of a tetrameric/pentameric N-acetylglucosamine backbone that is O-sulfated on the reducing terminal residue, O-acetylated on the non-reducing terminal residue, and mono-N-acylated by unsaturated C16 acyl groups. […]

HvRLK10 ectodomain = assay: BLI binding of HvRLK10 ectodomain to ligands; parameters: species or system H. vulgare; settings: FIGS. 13A, 13C, 13D
[4] = molecular target: T3, Medicago NFP ectodomain (NFP-ECD, WT) (Medicago truncatula, UniProt Q0GXS4); assay: Biolayer interferometry (BLI) binding of NFP-ECD to immobilized biotinylated ligands; settings: further BLI assays, FIGS. 15B-15E; listed as chitin
T3 construct: The Medicago truncatula NFP ectodomain (residues 28-246) was codon-optimized; AcMNPV gp67 signal peptide (replaces native signal peptide 1-27) (N); made in house; host or cells: Sf9 (Spodoptera frugiperda), baculovirus, secreted into medium
T3 sequence (Q0GXS4 28-246): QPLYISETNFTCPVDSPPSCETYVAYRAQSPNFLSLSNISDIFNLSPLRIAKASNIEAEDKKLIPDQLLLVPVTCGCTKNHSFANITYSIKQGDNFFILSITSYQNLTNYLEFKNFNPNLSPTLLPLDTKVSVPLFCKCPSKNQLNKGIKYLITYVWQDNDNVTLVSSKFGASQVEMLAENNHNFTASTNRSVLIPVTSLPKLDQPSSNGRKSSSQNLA
Method: as §2, §3, §4

Medicago NFP ectodomain = molecular target: T4, Medicago NFP ectodomain (Medicago truncatula, UniProt Q0GXS4); assay: Microscale thermophoresis (MST) binding of ligands to labelled NFP; settings: carbohydrate ligands
T4 construct: The Medicago truncatula NFP ectodomain (residues 28-246) was codon-optimized; AcMNPV gp67 signal peptide (replaces native signal peptide 1-27) (N); made in house; host or cells: Sf9 (Spodoptera frugiperda), baculovirus, secreted into medium
T4 sequence (Q0GXS4 28-246): T3 sequence (Q0GXS4 28-246)
Method: as §1, with “centrifugation.” for “centrifugation. This was followed by an overnight dialysis step against 50 mM Tris-HCl pH 8, 200 mM NaCl at 277 K. The NFP ectodomain was enriched by two subsequent steps of Ni-IMAC purification (HisTrap excel/HisTrap HP, both GE Healthcare). For crystallography experiments, N-glycans were removed using the endoglycosidase PNGase F (1:15 (w/w), room temperature, overnight). As a final purification step, NFP ectodomain was purified by SEC on a Superdex 200 10/300 or HiLoad Superdex 200 16/600 (both GE Healthcare) in phosphate buffered saline at pH 7.2 supplemented to a total of 500 mM NaCl (for binding assays) or 50 mM Tris-HCl, 200 mM NaCl (for crystallography). NFP ectodomain elutes as a single, homogeneous peak corresponding to a monomer.”

CC(=O)N[C@H]1[C@H](O[C@H]2[C@H](O)[C@@H](NC(C)=O)[C@H](O[C@H]3[C@H](O)[C@@H](NC(C)=O)C(O)O[C@@H]3CO)O[C@@H]2CO)O[C@H](CO)[C@@H](O[C@@H]2O[C@H](CO)[C@@H](O[C@@H]3O[C@H](CO)[C@@H](O)[C@H](O)[C@H]3NC(C)=O)[C@H](O)[C@H]2NC(C)=O)[C@@H]1O (stereo partly shown) [CO5]
Binding to HvRLK10 ectodomain (in words) [1]: did not bind | Kd ([2]; read-out: Dissociation constant (Kd)): 93 µM | Binding to NFP-ECD (in words) [3]: did not bind; also recorded: does not bind | HvRLK10 ectodomain binding (BLI) (HvRLK10 ectodomain): did not bind | NFP-ECD binding (BLI) [4]: did not bind; also recorded: does not bind

OC[C@H]1O[C@H](O[C@H]2[C@H](O)[C@@H](O)[C@@H](O[C@H]3[C@H](O)[C@@H](O)[C@@H](O[C@H]4[C@H](O)[C@@H](O)[C@@H](O[C@H]5[C@H](O)[C@@H](O)[C@@H](O[C@H]6[C@H](O)[C@@H](O)C(O)O[C@@H]6CO)O[C@@H]5CO)O[C@@H]4CO)O[C@@H]3CO)O[C@@H]2CO)[C@H](O)[C@@H](O)[C@@H]1O (stereo partly shown) [maltohexaose]
Binding to NFP (in words) [2]: not able to bind

maltohexaose
binding to NFP (MST) (Medicago NFP ectodomain): not able to bind
